No end group written: not given here.
Legend:
[1] = system: A549 cells (human alveolar epithelial adenocarcinoma cells); test: Anticancer effect on A549 cells transplanted into nude mice; assay type: in vivo; conditions: 25 mg/kg intravenous
Description: In this example, the anticancer effect of peptide 6 on A549 cells (human alveolar epithelial adenocarcinoma cells) was examined in vivo.
CAnN.Cg-Foxn1nu/CrlCrlj nude mice were divided into groups of 6 animals each. A549 cells suspended in PBS at a concentration of 4×10^6 cells/mL were transplanted subcutaneously to the right ventral part thereof. The peptide 6 was administered intravenously from the tail vein at a dose of 25 mg/kg (peptide 6 group) on 14, 17, 21, 24, 28, 31, 35, and 38 days later after tumor transplantation. Control group was administered PBS only.
Tumor volume and body weight were measured every 3 or 4 days, and the tumor was resected on 38 days after tumor transplantation (on […] after the start of peptide administration). The tumor volume was calculated from the formula “estimated tumor volume=(minor axis)^2×(major axis)÷2” by measuring the minor axis and major axis with a caliper. […] 5 mice were evaluated.

RM-4 cells [2] = test: Cell fusion activity in RM-4 cells; assay type: cell-based, rat; conditions: peptide 1 μg/mL, cultured 24-36 hours, nuclear staining
Description: (§1) RFL cells or LLC cells (2×10^6 cells) were suspended in 6 mL of RPMI-1640 medium (Wako, 189-02025) supplemented with 5% FBS (Biosera, Cat No. 015BS493) and 8×10^4 cells/0.25 mL were dispensed to each well of 24 well plate (Iwaki, 2820-024)), and cultured. The medium was removed, and a fresh medium (20 μL) and peptide 1 (1 μg/mL) were dispensed, and the cells were further cultured for 24-36 hours. After the culture was completed, the cells were fixed with methanol (Wako), and nuclear-stained with Gimza staining solution (Muto Kagaku 15003) for microscopic examination.
In this Example, the cell fusion activity of the peptide 6 was examined. The procedure of Example 2 was repeated, except that the peptide 6 was used instead of the peptide 1, and the RM-4 cells only used instead of the LCC cells. In connection with this, RM-4 cells are cancer cells in which RFL cells were infected with Moloney murine leukemia virus and selected.

[3] = system: RFL cells (rat lung fetal cells); test: Cell fusion activity in RFL cells; assay type: cell-based; conditions: peptide 1 μg/mL, cultured 24-36 hours, nuclear staining
Description: (§2) In this Example, the peptide 1 obtained in Example 1 was added to RFL cells (rat lung fetal cells) or LLC cells (Lewis lung carcinoma-derived cells), and the cell fusion activity of the peptide was examined.
as §1

RM-4 cells [4] = test: Apoptosis induction in RM-4 cells (Caspase-3/7 and Annexin V, IncuCyte S3); assay type: cell-based, rat; conditions: 0.06 μg/mL peptide
Description: In this Example, the apoptosis ability of peptide 1 was examined using the RM-4 cells. An activity of Caspase-3/7 and an activity of AnnexinV (red fluorescence) which are indications of apoptosis, was measured using IncuCyte S3 live cell analysis system (Essen BioScience).
The activity of Caspase-3/7 activity is measured using an inert non-fluorescent (DEVD) substrate that can penetrate the cell membrane. An activated Caspase-3/7 cleaves the substrate, and thereby a DNA-bound green fluorescent label is released. The activity of Caspase-3/7 is measured by the intensity of green fluorescence.
The activity of Annexin V is measured using a photostable CF dye. CF dye emits a red fluorescent signal when bound to phosphatidylserine (PS). The activity of Annexin V is measured by the red fluorescent signal.
RM-4 cells were seeded on 96-well plates and 0.06 μg/mL of peptide 1 was added thereto. Caspase-3/7 Green Reagent (Unit size: 20 ul, 5 mM/vial) was diluted 500-fold with Ham's F-12K and added thereto. Then, Annexin V Red Reagent (Unit size: 100 tests/vial) was diluted 100-fold with Ham's F-12K and added thereto. They were measured using the IncuCyte S3 live cell analysis system, by continuously scanning every hour for 3 days with an objective lens of magnification of 10 times and 4 fields of view. As a control, RM-4 cells which were not treated with peptide 1, were used.

[5] = system: LLC cells (Lewis lung carcinoma-derived cells); test: Cell fusion activity in LLC cells; assay type: cell-based; conditions: LLC (printed LCC) cells, peptide 1 μg/mL, cultured 24-36 hours, nuclear staining
Description: as §2, §1

[6] = system: RFL cells (rat lung fetal cells); test: Cell fusion activity in RFL cells; assay type: cell-based; conditions: peptide 9 vs peptide 1, peptide 1 vs peptide 10

Q: Which results are given for “CH3-Pro-Ile-Val-Ser-Thr-Gln-Thr-Ala-Leu-Ala (Me-PIVSTQTALA) [peptide 6]”?
A: tumor volume ([1]; A549 subcutaneous in nude mice, 8 administrations, 28 days): tumor volumes were reduced; histology of HE-stained excised tumor ([1]; A549 tumor resected 38 days after transplantation): the inside of the tumor was necrotic; cell fusion activity (fusion cells with multiple nuclei, microscopy) (RM-4 cells [2]): cells are fused and fusion cells with multiple nuclei were found; cell fusion activity (fusion cells with multiple nuclei, microscopy) [3]: cells are fused and fusion cells with multiple nuclei were found

Q: How did the “cell fusion activity (fusion cells with multiple nuclei, microscopy)” value [3] turn out when “CH3-Pro-Leu-Val-Ser-Gln-Thr-Thr-Ala-Ile-Ala (Me-PLVSQTTAIA) [peptide 3]” was run?
A: Its value is “cells are fused and fusion cells with multiple nuclei were found”.

Q: With PLVSTQTAIA [peptide 10] as the substance, how does the “cell fusion activity (fusion cells with multiple nuclei, microscopy)” value [3] read?
A: Its value is “cells are fused and fusion cells with multiple nuclei were found”.

Q: How did the “apoptosis induction (fluorescence micrographs)” value (RM-4 cells [4]; after 18 and 78 hours) turn out when “CH3-Pro-Leu-Val-Ser-Thr-Gln-Thr-Ala-Ile-Ala (Me-PLVSTQTAIA) [peptide 1]” was run?
A: Its value is “induced apoptosis in RM-4 cells”.

Q: And the “activity of Annexin V (red fluorescence)” value (RM-4 cells [4]; scanned every hour for 3 days)?
A: The value was “increased sharply between 10 and 20 hours, and then gradually increased”.

Q: And the “activity of Caspase-3/7 (green fluorescence)” value (RM-4 cells [4]; scanned every hour for 3 days)?
A: Its value is “increased sharply between 10 and 20 hours, and then gradually increased”.

Q: And the “cell fusion activity (fusion cells with multiple nuclei, microscopy)” value [5]?
A: The value was “cells are fused and fusion cells with multiple nuclei were found”.

Q: And the “cell fusion activity compared with another peptide” value [6]?
A: Its value is “seemed to be stronger”.

Q: What about the “cell fusion activity (fusion cells with multiple nuclei, microscopy)” value [3] of the same substance?
A: Its value is “cells are fused and fusion cells with multiple nuclei were found”.

Q: For “CH3-Pro-Ile-Val-Ser-Gln-Thr-Thr-Ala-Ile-Ala (Me-PIVSQTTAIA) [peptide 7]”, which “cell fusion activity (fusion cells with multiple nuclei, microscopy)” value [3] is on record?
A: The value was “cells are fused and fusion cells with multiple nuclei were found”.

Q: With “CH3-Pro-Leu-Val-Ser-Gln-Thr-Thr-Ala-Leu-Ala (Me-PLVSQTTALA) [peptide 4]” as the substance, how does the “cell fusion activity (fusion cells with multiple nuclei, microscopy)” value [3] read?
A: The value was “cells are fused and fusion cells with multiple nuclei were found”.

Q: “CH3-Pro-Leu-Val-Ser-Thr-Gln-Thr-Ala-Ile-Ala-Thr-Ala (Me-PLVSTQTAIATA) [peptide 9]” was tested. Which “cell fusion activity compared with another peptide” value [6] did it give?
A: The value was “superior to peptide 1”.

Q: What about the “cell fusion activity (fusion cells with multiple nuclei, microscopy)” value [3] of the same substance?
A: The value was “cells are fused and fusion cells with multiple nuclei were found”.

Q: For “CH3-Pro-Ile-Val-Ser-Gln-Thr-Thr-Ala-Leu-Ala (Me-PIVSQTTALA) [peptide 8]”, which “cell fusion activity (fusion cells with multiple nuclei, microscopy)” value [5] is on record?
A: Its value is “cells are fused and fusion cells with multiple nuclei were found”.

Q: What about the “cell fusion activity (fusion cells with multiple nuclei, microscopy)” value [3] of the same substance?
A: The value was “cells are fused and fusion cells with multiple nuclei were found”.

Q: Which “cell fusion activity (fusion cells with multiple nuclei, microscopy)” value [3] does the source give for “CH3-Pro-Leu-Val-Ser-Thr-Gln-Thr-Ala-Leu-Ala (Me-PLVSTQTALA) [peptide 2]” here?
A: The value was “cells are fused and fusion cells with multiple nuclei were found”.

Q: For “CH3-Pro-Ile-Val-Ser-Thr-Gln-Thr-Ala-Ile-Ala (Me-PIVSTQTAIA) [peptide 5]”, which “cell fusion activity (fusion cells with multiple nuclei, microscopy)” value [3] is on record?
A: The value was “cells are fused and fusion cells with multiple nuclei were found”.
